Laboratory results from patent US8883789B2, “Piperazine derivatives and their use as positive allosteric modulators of mGluR5 receptors” (Boehringer Ingelheim International GmbH, priority 2011, dated 2014).

target: T1, human recombinant mGluR5 (Homo sapiens, UniProt P41594); assay: positive modulation of mGluR5, calcium based FLIPR assay; settings: HEK 293 cell line expressing human recombinant mGluR5; Ca2+ peak height after glutamate at approximately 5% basal stimulation; nonlinear regression
T1 construct: expressed in transfected cells; hygromycin and geneticin selection
How it was run: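 HEK293 cells with tetracycline-free induction, Calcium-4 dye-loaded in Ringer pH 7.4. Compound added 5 min before glutamate at ~5% of maximal effect, 1% DMSO. EC50 from peak Ca2+ fluorescence, normalized to basal glutamate (100%) and 10 μM CDPPB (200%), via nonlinear regression.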

T1 sequence (P41594 21-1212): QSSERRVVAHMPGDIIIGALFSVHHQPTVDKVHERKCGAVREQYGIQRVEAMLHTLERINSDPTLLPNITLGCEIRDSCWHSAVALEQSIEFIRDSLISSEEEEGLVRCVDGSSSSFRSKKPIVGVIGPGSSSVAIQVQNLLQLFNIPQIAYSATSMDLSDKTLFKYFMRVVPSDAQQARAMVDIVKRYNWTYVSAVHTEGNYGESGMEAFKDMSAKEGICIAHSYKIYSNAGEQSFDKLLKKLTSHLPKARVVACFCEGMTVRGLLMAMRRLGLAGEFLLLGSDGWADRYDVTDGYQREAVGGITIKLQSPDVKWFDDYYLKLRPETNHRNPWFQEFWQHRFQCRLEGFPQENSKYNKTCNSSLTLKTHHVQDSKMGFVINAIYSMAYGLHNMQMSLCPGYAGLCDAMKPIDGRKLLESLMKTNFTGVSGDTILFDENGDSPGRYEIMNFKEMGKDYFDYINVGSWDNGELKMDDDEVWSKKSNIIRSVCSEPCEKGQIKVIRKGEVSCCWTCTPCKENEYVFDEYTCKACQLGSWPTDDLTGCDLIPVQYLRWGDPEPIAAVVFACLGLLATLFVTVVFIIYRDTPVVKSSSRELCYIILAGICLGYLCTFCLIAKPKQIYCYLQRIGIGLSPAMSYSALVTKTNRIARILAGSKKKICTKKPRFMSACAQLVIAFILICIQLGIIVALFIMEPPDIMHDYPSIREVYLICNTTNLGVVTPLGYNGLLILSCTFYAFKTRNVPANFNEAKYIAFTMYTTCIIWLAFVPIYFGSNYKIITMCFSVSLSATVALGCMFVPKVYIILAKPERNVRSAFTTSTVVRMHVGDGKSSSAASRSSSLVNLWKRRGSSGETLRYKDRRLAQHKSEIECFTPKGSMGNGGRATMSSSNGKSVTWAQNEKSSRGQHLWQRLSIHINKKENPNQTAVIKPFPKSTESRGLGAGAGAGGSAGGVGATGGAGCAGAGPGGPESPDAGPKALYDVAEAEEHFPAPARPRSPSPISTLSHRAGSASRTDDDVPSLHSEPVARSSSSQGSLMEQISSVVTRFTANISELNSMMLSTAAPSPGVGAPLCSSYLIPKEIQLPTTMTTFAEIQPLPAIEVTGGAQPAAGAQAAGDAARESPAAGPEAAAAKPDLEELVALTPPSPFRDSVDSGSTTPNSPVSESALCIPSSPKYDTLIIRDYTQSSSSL

Point of comparison: CC(C)(C)c1cccc(C(=O)N2CCN(C(=O)c3ncn(-c4ccccc4)n3)C(C)(C)C2)c1 [Example 130], EC50 31 nM. Against it:
- Cc1cc(C(=O)N2CCN(C(=O)c3ncn(-c4cccc(F)c4)n3)C(C)(C)C2)oc1C [Example 174, [4-(4,5-Dimethyl-furan-2-carbonyl)-2,2-dimethyl-piperazin-1-yl]-[1-(3-fluoro-phenyl)-1H-[1,2,4]triazol-3-yl]-methanone] — 7.1-fold higher, 221 nM
- CC1(C)CN(C(=O)c2cc(Cl)cc(C(F)(F)F)c2)CCN1C(=O)c1ncn(-c2ccccc2)n1 [Example 145] — 3.9-fold higher, 120 nM
- COc1cccc(C(=O)N2CCN(C(=O)c3ncn(-c4cccc(F)c4)n3)C(C)C2)n1 (centres unmarked) [Example 297] — 13-fold higher, 411 nM
- Cc1oc2ccc(F)cc2c1C(=O)N1CCN(C(=O)c2ncn(-c3cccc(F)c3)n2)C(C)(C)C1 [Example 2] — 2.2-fold higher, 67 nM
- CC1(C)CN(C(=O)c2cccc(Cl)c2)CCN1C(=O)c1ncn(-c2ccccc2F)n1 [Example 194] — 16-fold higher, 491 nM
- CC(C)Oc1nc(C(=O)N2CCN(C(=O)c3ncn(-c4ccccc4)n3)C(C)(C)C2)cc2ccccc12 [Example 118] — 1.6-fold higher, 50 nM
- COCc1c(C(=O)N2CCN(C(=O)c3ncn(-c4cccc(Cl)c4)n3)CC2C)oc2ccccc12 (centres unmarked) [Example 217] — 50-fold higher, 1540 nM
- COc1nc(C(=O)N2CCN(C(=O)c3ncn(-c4ccc(F)c(C)c4)n3)C(C)(C)C2)cc2ccccc12 [Example 160, [1-(4-Fluoro-3-methyl-phenyl)-1H-[1,2,4]triazol-3-yl]-[4-(1-methoxy-isoquinoline-3-carbonyl)-2,2-dimethyl-piperazin-1-yl]-methanone] — 6.7-fold higher, 207 nM
- COc1cccc(C(=O)N2CCN(C(=O)c3nnn(-c4cccc(C)c4)n3)CC2C)n1 (centres unmarked) [Example 243, (6-Methoxy-pyridin-2-yl)-[2-methyl-4-(2-m-tolyl-2H-tetrazole-5-carbonyl)-piperazin-1-yl]-methanone] — 12-fold higher, 365 nM
- COc1cccc(C(=O)N2CCN(C(=O)c3ncn(-c4ccccc4)n3)CC2C)n1 (centres unmarked) [Example 247] — 12-fold higher, 373 nM
- Cc1cc(C(=O)N2CCN(C(=O)c3ncn(-c4cccc(Cl)c4)n3)C(C)(C)C2)ccc1Cl [Example 65] — 4.6-fold higher, 144 nM
- CC1(C)CN(C(=O)c2csc(-c3ccccc3)n2)CCN1C(=O)c1ncn(-c2cccc(Cl)c2)n1 [Example 54] — 6.5-fold higher, 201 nM
- COc1cccc(C(=O)N2CCN(C(=O)c3ncn(-c4cccc(Cl)c4)n3)C[C@@H]2C)n1 [Example 252, (S)-{4-[1-(3-Chloro-phenyl)-1H-[1,2,4]triazole-3-carbonyl]-2-methyl-piperazin-1-yl}-(6-methoxy-pyridin-2-yl)-methanone] — 9-fold higher, 278 nM
- Cc1ccc(Cl)cc1C(=O)N1CCN(C(=O)c2ncn(-c3ccccc3)n2)C(C)(C)C1 [Example 154] — 5.1-fold higher, 157 nM
- CC1CN(C(=O)c2ncn(-c3cccc(F)c3)n2)CCN1C(=O)c1cc(Cl)c2c(c1)OCCO2 (centres unmarked) [Example 234] — 9.7-fold higher, 301 nM
- Cn1nc(C(=O)N2CCN(C(=O)c3ncn(-c4ccccc4)n3)C(C)(C)C2)c2ccccc21 [Example 123] — 8.2-fold higher, 254 nM
- Cc1c(C(=O)N2CCN(C(=O)c3ncn(-c4cccc(Cl)c4)n3)C(C)(C)C2)oc2c(C)cccc12 [Example 66] — 3.4-fold higher, 104 nM
- Cc1cc2cc(C(=O)N3CCN(C(=O)c4ncn(-c5cccc(Cl)c5)n4)C(C)(C)C3)ccc2[nH]1 [Example 80] — 4.5-fold higher, 139 nM
- CCc1ccc(C(=O)N2CCN(C(=O)c3ncn(-c4cccc(Cl)c4)n3)C(C)(C)C2)s1 [Example 83] — 2.1-fold higher, 64 nM
- CC1CN(C(=O)c2cccc(-c3ccn(C)n3)c2)CCN1C(=O)c1ncn(-c2cccc(Cl)c2)n1 (centres unmarked) [Example 269] — 14-fold higher, 447 nM
- COc1cc(Cl)cc(C(=O)N2CCN(C(=O)c3nnn(-c4cccc(F)c4)n3)C(C)(C)C2)n1 [Example 169, [4-(4-Chloro-6-methoxy-pyridine-2-carbonyl)-2,2-dimethyl-piperazin-1-yl]-[2-(3-fluoro-phenyl)-2H-tetrazol-5-yl]-methanone] — within 1.5-fold, 27 nM
- CC1(C)CN(C(=O)c2cccc(C3CC3)n2)CCN1C(=O)c1ncn(-c2ccccc2)n1 [Example 183] — 1.6-fold higher, 49 nM
- COc1cc(C(=O)N2CCN(C(=O)c3ncn(-c4cccc(C)c4)n3)C(C)C2)ccc1C (centres unmarked) [Example 288] — 12-fold higher, 372 nM
- CCCOc1cccc(C(=O)N2CCN(C(=O)c3ncn(-c4cccc(Cl)c4)n3)C(C)C2)c1 (centres unmarked) [Example 285] — 24-fold higher, 746 nM
- CC1CN(C(=O)c2cc3ccccc3o2)CCN1C(=O)c1ncn(-c2cccc(Cl)c2)n1 (centres unmarked) [Example 267] — 18-fold higher, 558 nM
- Cc1cccc(-n2cnc(C(=O)N3C[C@@H](C)N(C(=O)c4oc5ccc(Cl)cc5c4C)[C@@H](C)C3)n2)c1 [Example 264] — 29-fold higher, 891 nM
- CC1(C)CN(C(=O)c2cccc(-c3ccn[nH]3)n2)CCN1C(=O)c1ncn(-c2cccc(Cl)c2)n1 [Example 94] — 9.2-fold higher, 285 nM
- COc1cc(C(=O)N2CCN(C(=O)c3ncn(-c4ccccc4)n3)C(C)C2)ccc1C (centres unmarked) [Example 292] — 39-fold higher, 1210 nM
- Cc1oc2ccccc2c1C(=O)N1CCN(C(=O)c2ncn(-c3ccccc3)n2)C(C)C1 (centres unmarked) [Example 295] — 3.1-fold higher, 95 nM
- COc1nc(C(=O)N2CCN(C(=O)c3ncn(-c4ccc(C)c(F)c4)n3)C(C)(C)C2)cc2ccccc12 [Example 158] — 14-fold higher, 441 nM
- Cc1c(C(=O)N2CCN(C(=O)c3ncn(-c4cccc(Cl)c4)n3)C[C@@H]2C)oc2ccc(F)cc12 [Example 253] — 11-fold higher, 336 nM
- Cc1ccc2oc(C(=O)N3CCN(C(=O)c4ncn(-c5cccc(Cl)c5)n4)CC3C)c(C)c2c1 (centres unmarked) [Example 227] — 31-fold higher, 954 nM
- COc1ccc2oc(C)c(C(=O)N3CCN(C(=O)c4ncn(-c5cccc(F)c5)n4)C(C)C3)c2c1 (centres unmarked) [Example 287] — 7.8-fold higher, 242 nM
- CC1CN(C(=O)c2ncn(-c3cccc(Cl)c3)n2)CCN1C(=O)c1cc2ccccc2o1 (centres unmarked) [Example 214] — 14-fold higher, 428 nM
- COc1cccc(C(=O)N2C[C@@H](C)N(C(=O)c3ncn(-c4cccc(C)c4)n3)[C@@H](C)C2)n1 [Example 302, (2R*,6S*)-4-[(6-methoxypyridin-2-yl)carbonyl]-2,6-dimethyl-1-{[1-(3-methylphenyl)-1H-1,2,4-triazol-3-yl]carbonyl}piperazine] — 5.4-fold higher, 166 nM
- CCC1CN(C(=O)c2ncn(-c3cccc(F)c3)n2)CCN1C(=O)c1cc(Br)c(Br)o1 (centres unmarked) [Example 260] — 4.9-fold higher, 153 nM
- COc1cccc(C(=O)N2CCN(C(=O)c3ncn(-c4cccc(Cl)c4)n3)C(C)(C)C2)c1 [Example 43] — 2.6-fold higher, 80 nM
- COc1cc(C(=O)N2CCN(C(=O)c3ncn(-c4cccc(Cl)c4)n3)C(C)C2)ccc1C (centres unmarked) [Example 277] — 16-fold higher, 507 nM
- CC1(C)CN(C(=O)c2ccnc(C(F)(F)F)n2)CCN1C(=O)c1ncn(-c2ccccc2)n1 [Example 143] — 19-fold higher, 589 nM
- COc1cccc(C(=O)N2CCN(C(=O)c3ncn(-c4cc(F)ccc4F)n3)C(C)(C)C2)n1 [Example 197, [1-(2,5-Difluoro-phenyl)-1H-[1,2,4]triazol-3-yl]-[4-(6-methoxy-pyridine-2-carbonyl)-2,2-dimethyl-piperazin-1-yl]-methanone] — 4.8-fold higher, 149 nM
- COc1cccc(C(=O)N2CCN(C(=O)c3ncn(-c4ccc(F)c(C)c4)n3)C(C)(C)C2)n1 [Example 161] — 10-fold higher, 316 nM
- CC1(C)CN(C(=O)c2cc(Br)c(Br)o2)CCN1C(=O)c1ncn(-c2cccc(F)c2)n1 [Example 175] — 3.4-fold higher, 104 nM
- CC1(C)CN(C(=O)c2cccc(Cl)c2)CCN1C(=O)c1nnn(-c2ccc(F)cc2)n1 [Example 193] — 5.6-fold higher, 173 nM
- CC1(C)CN(C(=O)c2cc(Cl)c3c(c2)OCCO3)CCN1C(=O)c1ncn(-c2cccc(F)c2)n1 [Example 3] — 2.8-fold higher, 86 nM
- COc1cc2cc(C(=O)N3CCN(C(=O)c4ncn(-c5cccc(Cl)c5)n4)C(C)(C)C3)nc(OC)c2cc1OC [Example 32] — 5.8-fold higher, 179 nM
- CC1(C)CN(C(=O)c2cc(Cl)c3c(c2)OCCO3)CCN1C(=O)c1ncn(-c2ccccc2)n1 [Example 104] — 1.6-fold higher, 50 nM
- O=C(c1cc(Br)c(Br)o1)N1CCN(C(=O)c2ncn(-c3cccc(F)c3)n2)C2(CCC2)C1 [Example 306] — 14-fold higher, 445 nM
- CC1(C)CN(C(=O)c2cc3ccccc3c(OCC3CC3)n2)CCN1C(=O)c1ncn(-c2cccc(Cl)c2)n1 [Example 85] — 3.5-fold higher, 109 nM
- COc1ccc2oc(C)c(C(=O)N3CCN(C(=O)c4ncn(-c5cccc(C)c5)n4)CC3C)c2c1 (centres unmarked) [Example 237] — 5.6-fold higher, 174 nM
- COc1cc(C(=O)N2CCN(C(=O)c3ncn(-c4cccc(F)c4)n3)CC2C)ccc1C (centres unmarked) [Example 233] — 15-fold higher, 476 nM
- Cc1oc2ccccc2c1C(=O)N1CCN(C(=O)c2ncn(-c3ccccc3)n2)CC1C (centres unmarked) [Example 240] — 11-fold higher, 350 nM
- Cc1cccc(C(=O)N2CCN(C(=O)c3ncn(-c4cccc(Cl)c4)n3)C(C)(C)C2)n1 [Example 39] — 14-fold higher, 419 nM
- CC1(C)CN(C(=O)c2cc(Cl)ccc2F)CCN1C(=O)c1ncn(-c2cccc(Cl)c2)n1 [Example 73] — 5.2-fold higher, 162 nM
- CC1(C)CN(C(=O)c2cccc(C(F)F)c2)CCN1C(=O)c1ncn(-c2ccccc2)n1 [Example 135] — 1.5-fold higher, 47 nM
- COc1cc(OC)cc(C(=O)N2CCN(C(=O)c3ncn(-c4cccc(Cl)c4)n3)CC2C)c1 (centres unmarked) [Example 224] — 12-fold higher, 369 nM
- CC1(C)CN(C(=O)c2cccc(C3CC3)n2)CCN1C(=O)c1nnn(-c2ccccc2)n1 [Example 180, [4-(6-Cyclopropyl-pyridine-2-carbonyl)-2,2-dimethyl-piperazin-1-yl]-(2-phenyl-2H-tetrazol-5-yl)-methanone] — 1.9-fold lower, 16 nM
- CC1(C)CN(C(=O)c2cccc(C3CCC3)n2)CCN1C(=O)c1ncn(-c2ccccc2)n1 [Example 137] — 2.2-fold higher, 69 nM
- CC1(C)CN(C(=O)c2ccc(Cl)c(Cl)c2)CCN1C(=O)c1ncn(-c2cccc(Cl)c2)n1 [Example 27] — 2.6-fold higher, 80 nM
- COCc1cccc(C(=O)N2CCN(C(=O)c3ncn(-c4cccc(Cl)c4)n3)C(C)(C)C2)n1 [Example 38] — 13-fold higher, 410 nM
- COc1ccc(C(=O)N2CCN(C(=O)c3ncn(-c4ccccc4)n3)C(C)(C)C2)o1 [Example 132] — 58-fold higher, 1810 nM
- COc1nc(C(=O)N2CCN(C(=O)c3ncn(-c4cccc(Cl)c4)n3)C(C)(C)C2)cc2cc(F)ccc12 [Example 21] — 2-fold higher, 62 nM
